# Key:
# BRD4 = molecular target: T1, BRD4 (Mus musculus, UniProt Q9ESU6); test: DAB staining of excised cancer tissue; type: in vivo; settings: FIG. 34
# T1 construct: Western blot after PROTAC (ARV-771 release, VHL recruiting)
# Method: (§1) The control group was administered saline (10 mg/kg) once every 3 days for 15 days through the tail vein (total 4 administrations). The comparison group was administered ARV-771 (10 mg/kg) once every 3 days for 15 days through the tail vein (total 4 administrations). The example group was administered ECMal-PROTAC 10 mg/kg (wquiv. to ARV-771) of example 1 once every 3 days for 15 days through the tail vein (total 4 administrations).
# FIG. 34 is the result of DAB staining of cancer tissue excised from the control group, the comparison group, and the example group.
# Bcl-2 = test: Western blot of excised cancer tissue, Bcl-2; type: in vivo, mouse
# Method: as §1
# [1] = Body weight and systemic side effects; type: in vivo, mouse; settings: 10 mg/kg, i.v., once every 3 days for 15 days
# Method: as §1
# (§2) Tumor size and body weight were measured every two days for the control group, the comparison group, and the example group.
# thiol-blocked BSA = thiol-blocked BSA (Bos taurus, UniProt P02769); test: Selective binding: thiol-blocked BSA, RP-HPLC; set-up: species or system bovine; settings: thiol-blocked BSA 200 μM, ECMal-PROTAC 140 μM, up to 60 minutes
# Method: To confirm whether the binding of ECMal-PROTAC of example 1 and albumin is specific, thiol-blocked BSA was used. Specifically, thiol-blocked BSA was prepared by mixing 4-maleimidobutyric acid and BSA with a cyc34 blocking agent. The thiol-blocked BSA was diluted with PBS to prepare a solution (200 μM). This was co-incubated by mixing it with the ECMal-PROTAC aqueous solution (140 μM) of example 1 at a 1:1 volume ratio. The culture was collected at incubation times of 0 minutes, 5 minutes, 30 minutes, and 60 minutes. It was quenched with mercaptoethanol, and HPLC spectra for each sample were acquired through concentration gradient of the eluent (ACN/H2O, 20/80 to 80/20 (v/v), 30 minutes).
# From the HPLC results for the BSA and complex for cancer targeting (ECMal-PROTAC) mixture in Experimental Example 1 and the thiol-blocked BSA and complex for cancer targeting (ECMal-PROTAC) mixture in Experimental Example 2, the reduction in the HPLC peak area associated with the complex for cancer targeting (ECMal-PROTAC) was quantified.
# 4T1 tumor = test: In vivo anticancer efficacy, tumor size in 4T1 cancer animal model; set-up: species or system mouse
# Method: (§3) 5-week-old female Balb/c and Balb/c nu/nu mice were purchased from NaraBio, Inc (Seoul, Republic of Korea). The mice underwent a 2-week acclimatization period before the example. The mice were raised under free-feeding conditions in a breeding room maintained at a temperature of 22±2° C. and humidity of 40-60% during the example. The light and dark cycle was regulated at 12-hour intervals. All examples were conducted in compliance with the relevant laws and institutional guidelines of the KIST Institutional Animal Care and Use Committee (IACUC; Approval No.: 2021-143).
# Cancer animal models were prepared by inoculating 1×10^6 4T1 cells into the left thigh of the mice, and raising them until the tumor volume reached 50-80 mm^3.
# For the preparation of the control group, the comparison group, and the example group, mice were randomly divided into groups of 5.
# as §1, §2
# [2] = test system: major organs and cancer tissue; test: Ex vivo biodistribution in major organs and cancer tissue; set-up: species or system mouse; settings: 24 hours after i.v. 3 mg/kg
# Method: as §3
# Cancer animal models were prepared by inoculating 1×10^6 4T1 cells into the left thigh of the mice, and raising them until the tumor volume reached 150-200 mm3.
# Samples were prepared as follows to analyze the in vivo therapeutic effect of the complex for cancer targeting (ECMal-PROTAC) of example 1. A Cy5.5-BSA solution (Cy5.5-Alb, Preparation Example 1, 200 μM) diluted with PBS was co-incubated by mixing it with an ECMal-PROTAC aqueous solution (140 μM) of example 1 at a 1:1 volume ratio. […]
# To analyze the sample distribution in the excised cancer tissue, the excised major organs and cancer tissue were imaged with the IVIS Lumina Series III system (PerkinElmer, Waltham, MA, USA) and analyzed with Living Image software (PerkinElmer).
# c-Myc = test: Western blot of excised cancer tissue, c-Myc; type: in vivo, mouse
# Method: as §1
# [3] = test system: organ tissue and cancer tissue; test: H&E histology of major organs and cancer tissue; type: in vivo, mouse; settings: excised after 15 days
# Method: as §1
# The control group, the comparison group, and the example group were euthanized after 15 days, and major organs (heart, liver, lung, spleen, kidney) and cancer tissue were excised.
# Furthermore, to analyze cancer cell apoptosis, TUNEL (terminal deoxynucleotidyl transferase dUTP nick end labeling) analysis was performed on cancer tissue excised from the control group, the comparison group, and the example group. Next, histological analysis was performed by H&E (hematoxylin & eosin) staining of the major organ tissues and cancer tissue of each excised group.
# According to FIG. 29, major organ tissue and cancer tissue were excised from the control group, the comparison group, and the example group after 15 days. The excised organ tissue and cancer tissue were stained with H&E (hematoxylin & eosin). The H&E stained tissue was observed using a BX51 optical microscope (Olympus, Tokyo, Japan) and a TCS SP8 confocal laser microscope.
# [4] = Particle size by DLS before and after binding to albumin; type: physicochemical; settings: before and after binding to BSA
# Method: A BSA solution (200 μM) diluted with PBS was co-incubated by mixing it with an ECMal-PROTAC aqueous solution (140 μM) of example 1 at a 1:1 volume ratio.
# [5] = Western blot, vs ARV-771 group (so in the source)
# Chain of thiol-blocked BSA (P02769 25-607): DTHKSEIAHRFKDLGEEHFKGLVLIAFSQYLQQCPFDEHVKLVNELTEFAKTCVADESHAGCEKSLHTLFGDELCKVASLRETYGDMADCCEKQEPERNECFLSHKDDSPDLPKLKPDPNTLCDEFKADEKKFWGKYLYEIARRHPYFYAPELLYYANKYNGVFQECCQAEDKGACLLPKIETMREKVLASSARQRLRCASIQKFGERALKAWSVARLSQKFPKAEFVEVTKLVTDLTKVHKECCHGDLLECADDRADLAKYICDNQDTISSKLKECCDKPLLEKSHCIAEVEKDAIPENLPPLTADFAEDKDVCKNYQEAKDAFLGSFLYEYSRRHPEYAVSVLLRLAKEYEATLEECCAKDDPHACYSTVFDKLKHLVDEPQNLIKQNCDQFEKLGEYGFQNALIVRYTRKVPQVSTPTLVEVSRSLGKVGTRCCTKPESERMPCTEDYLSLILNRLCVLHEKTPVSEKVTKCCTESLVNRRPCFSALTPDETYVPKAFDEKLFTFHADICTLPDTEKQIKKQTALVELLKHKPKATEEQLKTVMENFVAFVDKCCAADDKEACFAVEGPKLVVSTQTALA
compound,measurement,setting,value
Cc1ncsc1-c1ccc([C@H](C)NC(=O)[C@@H]2C[C@@H](OC(=O)CCCCn3nnc4c3CCC3C(CC4)C3COC(=O)NCCOCCOCCNC(=O)CCN3C(=O)C=CC3=O)CN2C(=O)[C@@H](NC(=O)COCCCOCCNC(=O)C[C@@H]2N=C(c3ccc(Cl)cc3)c3c(sc(C)c3C)-n3c(C)nnc32)C(C)(C)C)cc1 (some centres unmarked) [ECMal-PROTAC],BRD4 deficiency (DAB staining),BRD4,BRD4 deficiency was confirmed
same,Bcl-2 level in cancer tissue vs control,"Bcl-2; Western blot, 10 mg/kg",much lower levels
same,"Bcl-2 level in cancer tissue, example group vs comparison group",Bcl-2; [5],no significant difference
same,"relative expression level of Bcl-2, fold lower than control group","Bcl-2; cancer tissue, FIG. 32",2.3 times
same,systemic side effects,[1],did not show serious systemic side effects
same,weight loss,[1],no significant weight loss was observed
same,interaction with thiol-blocked BSA,thiol-blocked BSA,did not form an interaction
same,cancer size / increase in cancer size,"4T1 tumor; 10 mg/kg equiv. to ARV-771, 15 days",significantly reduced
same,"tumor volume, fold smaller than comparison group","4T1 tumor; 10 mg/kg equiv. to ARV-771, after 15 days, vs ARV-771 10 mg/kg",5.3 times
same,"tumor volume, fold smaller than control group","4T1 tumor; 10 mg/kg equiv. to ARV-771, after 15 days, vs saline",6.1 times
same,tumor volume after 15 days,"4T1 tumor; 10 mg/kg equiv. to ARV-771, tail vein, once every 3 days for 15 days",176.13±81.62 mm3
same,tumor size (optical image),4T1 tumor; excised after 15 days (FIG. 26),much smaller tumor size than the other groups
same,elimination through the kidneys,[2],very low probability of kidney excretion
same,c-Myc level in cancer tissue vs control,"c-Myc; Western blot, 10 mg/kg",much lower levels
same,"c-Myc level in cancer tissue, example group vs comparison group",c-Myc; [5],no significant difference
same,"relative expression level of c-Myc, fold lower than control group","c-Myc; cancer tissue, FIG. 32",2.2 times
same,damage to the liver tissue,[3]; H&E,does not cause damage to the liver tissue
same,damage in cancer tissue (H&E),[3],strong damage
same,damage in organ tissue (H&E),"[3]; liver, lung, spleen, kidney, heart",No significant damage
same,change in particle size on binding to albumin,[4],no significant change in particle size
